Key:
Assay in all cases: relative viability (nuclei count vs DMSO), 5 days (fraction); higher = more cells survive
[1] = compound: C1CC2=C(C1)C=C(C=C2)OC3=NC(=C4C(=N3)N(C=N4)CC5=CC=C(C=C5)C6=CC=CC=C6)N[C@@H](CC7=CC=CC=C7)CO [QS11] + NC(=O)Nc1cc(-c2cccc(F)c2)sc1C(=O)N[C@H]1CCCNC1 [AZD7762] (partner 0.2 µM)
How it was run: (§1)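 Relative viability divides the nuclei count in treated wells by that in vehicle wells. Lung cancer cell lines were seeded in 1536-well plates, dosed by pin tool the next day, and fixed and stained after 5 days in one step with final 0.05% Triton X-100, 1% formaldehyde and 1 ug/ml Hoechst. Dosing was a single drug or a fixed anchor-drug dose plus five library-drug doses (not always all listed) in √10 steps, and values are medians of duplicate plates imaged at 4×.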

[2] = compound: C1CC2=C(C1)C=C(C=C2)OC3=NC(=C4C(=N3)N(C=N4)CC5=CC=C(C=C5)C6=CC=CC=C6)N[C@@H](CC7=CC=CC=C7)CO [QS11] + Cc1nc(Nc2ncc(C(=O)Nc3c(C)cccc3Cl)s2)cc(N2CCN(CCO)CC2)n1 [Dasatinib] (partner 0.075 µM)
How it was run: as §1

[3] = compound: C[As](C)SC[C@H](NC(=O)CC[C@H](N)C(=O)O)C(=O)NCC(=O)O [Darinaparsin] + O=C(c1cc(Cc2n[nH]c(=O)c3ccccc23)ccc1F)N1CCN(C(=O)C2CC2)CC1 [Olaparib] (partner 8 µM)
How it was run: as §1

[4] = compound: CC1=C(C=C(C=C1)NC(=O)C2=CC(=CC=C2)C(C)(C)C#N)NC3=CC4=C(C=C3)N=CN(C4=O)C [AZ628] + NC(=O)Nc1cc(-c2cccc(F)c2)sc1C(=O)N[C@H]1CCCNC1 [AZD7762] (partner 0.2 µM)
How it was run: as §1

Cell Line	relative viability ([1]; first compound 0.08 µM)	relative viability ([1]; first compound 0.253 µM)	relative viability ([1]; first compound 0.8 µM)	relative viability ([1]; first compound 2.53 µM)	relative viability ([1]; first compound 8 µM)	relative viability ([2]; first compound 0.08 µM)	relative viability ([2]; first compound 0.253 µM)	relative viability ([2]; first compound 0.8 µM)	relative viability ([2]; first compound 2.53 µM)	relative viability ([2]; first compound 8 µM)	relative viability ([3]; first compound 0.08 µM)	relative viability ([3]; first compound 0.8 µM)	relative viability ([3]; first compound 8 µM)	relative viability ([4]; first compound 0.08 µM)	relative viability ([4]; first compound 0.253 µM)	relative viability ([4]; first compound 0.8 µM)	relative viability ([4]; first compound 2.53 µM)	relative viability ([4]; first compound 8 µM)	relative viability ([3]; first compound 2.53 µM)
NCI-H1793	0.449	0.519	0.514	0.407	0.418	0.381	0.374	0.472	0.419	0.48	1	0.832	1.03	0.52	0.244	0.419	0.319	0.177	–
HARA	0.63	–	0.267	0.454	0.329	0.294	0.281	–	0.221	0.307	0.598	–	0.779	0.299	0.216	0.272	0.363	0.228	0.769
NCI-H2347	0.698	0.694	0.692	0.834	0.807	0.279	0.297	0.308	0.274	0.308	0.646	0.472	0.577	0.684	0.575	0.709	0.566	0.34	0.559
ABC-1	0.74	0.776	0.732	0.774	0.843	0.577	0.436	–	0.605	0.571	1.14	0.99	1.08	0.761	0.786	0.768	0.865	0.745	1.02
NCI-H2342	0.489	0.47	0.502	0.488	0.456	0.318	0.323	0.299	0.35	0.348	0.484	0.398	0.415	0.489	0.44	0.623	0.53	0.625	0.461
NCI-H2126	1.01	0.999	0.846	1.01	0.933	0.604	0.505	0.616	0.61	0.566	0.986	0.886	1.12	1.08	0.945	0.775	1.01	0.984	0.84
HOP-62	0.556	0.611	0.538	0.608	0.582	0.695	0.667	0.708	0.615	0.706	0.56	0.487	0.525	0.831	0.555	0.613	0.479	0.297	0.402
NCI-H2085	1.01	1.06	0.791	1	0.991	0.222	0.263	0.277	0.292	0.255	0.866	0.775	0.745	0.997	0.925	1.04	1.01	0.566	0.792
NCI-H1944	0.49	0.519	–	0.421	0.39	0.197	0.214	–	0.226	0.272	0.458	0.44	0.404	0.5	0.488	0.454	0.414	0.359	0.363
EMC-BAC-2	1.1	0.99	0.957	0.989	0.856	0.341	0.337	0.376	0.285	0.269	0.475	0.447	0.461	1.16	1.09	1.18	1.13	1.28	0.614
NCI-H2228	–	–	–	–	–	0.415	0.521	0.55	0.725	0.677	0.746	0.74	0.944	–	–	–	–	–	0.693
A-427	0.673	0.744	–	0.856	1.05	0.646	0.718	–	0.708	0.729	0.71	0.8	0.791	0.591	0.569	0.6	0.524	0.352	0.787
EPLC-272H	–	0.202	0.246	0.278	0.247	–	0.394	0.35	0.257	0.333	0.659	0.958	0.615	0.34	0.168	0.165	0.22	0.236	0.514
A549	–	–	–	–	–	–	–	–	–	–	0.416	0.337	0.471	–	–	–	–	–	0.31
NCI-H358	0.542	0.474	0.529	0.6	0.681	0.144	0.171	0.189	0.393	0.656	0.701	0.61	0.569	0.499	0.405	0.367	0.412	0.302	0.585
NCI-H2009	–	–	–	–	–	0.277	0.295	0.261	0.209	0.229	0.715	0.769	0.72	–	–	–	–	–	0.628
HCC-827	0.194	0.201	0.234	0.307	0.187	0.244	0.26	0.386	0.305	0.328	0.784	0.638	0.759	0.258	0.177	0.17	0.217	0.166	0.65
NCI-H322M	0.525	0.515	0.477	0.53	0.552	0.264	0.261	0.27	0.292	0.318	0.763	0.763	0.726	0.529	0.526	0.455	0.467	0.524	0.713
NCI-H1755	0.472	0.492	0.42	0.48	0.413	0.449	0.39	0.38	0.391	0.314	0.915	0.774	0.899	0.466	0.385	0.392	0.429	0.356	0.848

— the supplement of paper PMC10307832
